# Laboratory results from PubChem BioAssay (NCI).
#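 Each compound was tested at five concentrations against cells in 96-well plates for 48 hours. Abbreviation: GI50, concentration required for 50% inhibition of growth. TGI: total growth inhibition.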
# What was measured:
# Assay in all cases: NCI tumour cell line growth inhibition, 48 h
# A549 NSCLC = test system: A549 NSCLC
# HL-60(TB) leukemia = test system: HL-60(TB) leukemia
# SNB-19 CNS = test system: SNB-19 CNS
# SK-OV-3 ovarian = test system: SK-OV-3 ovarian
# NCI-H522 lung = test system: NCI-H522 lung
# SN12C renal = test system: SN12C renal
# OVCAR-4 ovarian = test system: OVCAR-4 ovarian
# OVCAR-8 ovarian = test system: OVCAR-8 ovarian
# CCRF-CEM leukemia = test system: CCRF-CEM leukemia
# SF-268 CNS = test system: SF-268 CNS
# SW-620 colon = test system: SW-620 colon
# T-47D breast = test system: T-47D breast
# EKVX NSCLC = test system: EKVX NSCLC
# U251 CNS = test system: U251 CNS
# COLO 205 colon = test system: COLO 205 colon
# TK-10 renal = test system: TK-10 renal
# NCI/ADR-RES ovarian = test system: NCI/ADR-RES ovarian
# HT29 colon = test system: HT29 colon
# SK-MEL-5 melanoma = test system: SK-MEL-5 melanoma
# UO-31 renal = test system: UO-31 renal
# MDA-MB-435 = test system: MDA-MB-435
# MCF7 breast = test system: MCF7 breast
# HOP-92 NSCLC = test system: HOP-92 NSCLC
# NCI-H23 lung = test system: NCI-H23 lung
# SK-MEL-2 melanoma = test system: SK-MEL-2 melanoma
# SR leukemia = test system: SR leukemia
# MDA-MB-231 breast = test system: MDA-MB-231 breast
# M14 melanoma = test system: M14 melanoma
# HCT-15 colon = test system: HCT-15 colon
# KM12 colon = test system: KM12 colon
# A498 renal = test system: A498 renal
# RXF 393 renal = test system: RXF 393 renal
# HOP-62 NSCLC = test system: HOP-62 NSCLC
# PC-3 prostate = test system: PC-3 prostate
# OVCAR-5 ovarian = test system: OVCAR-5 ovarian
# UACC-257 melanoma = test system: UACC-257 melanoma
# 786-0 renal = test system: 786-0 renal
# NCI-H226 lung = test system: NCI-H226 lung
# K-562 leukemia = test system: K-562 leukemia
# UACC-62 melanoma = test system: UACC-62 melanoma
# IGROV1 ovarian = test system: IGROV1 ovarian
# OVCAR-3 ovarian = test system: OVCAR-3 ovarian
# HCC-2998 colon = test system: HCC-2998 colon
# HS 578T breast = test system: HS 578T breast
# BT-549 breast = test system: BT-549 breast
# SF-539 CNS = test system: SF-539 CNS
# RPMI-8226 leukemia = test system: RPMI-8226 leukemia
# HCT-116 colon = test system: HCT-116 colon
# MOLT-4 leukemia = test system: MOLT-4 leukemia
# LOX IMVI melanoma = test system: LOX IMVI melanoma
# ACHN renal = test system: ACHN renal
# SNB-75 CNS = test system: SNB-75 CNS
# SF-295 CNS = test system: SF-295 CNS
# DU-145 prostate = test system: DU-145 prostate
# SK-MEL-28 melanoma = test system: SK-MEL-28 melanoma
# MALME-3M melanoma = test system: MALME-3M melanoma
# NCI-H460 lung = test system: NCI-H460 lung
smiles,measurement,setting,value
CCCCCCCCCCCCCCCC(=O)Nc1ccn([C@@H]2O[C@H](CO)[C@@H](O)[C@@H]2C#N)c(=O)n1,GI50,A549 NSCLC,11.7 µM
same,TGI,A549 NSCLC,30.3 µM
same,GI50,HL-60(TB) leukemia,21.1 µM
same,TGI,HL-60(TB) leukemia,> 100 µM
same,GI50,SNB-19 CNS,6.02 µM
same,TGI,SNB-19 CNS,> 100 µM
same,GI50,SK-OV-3 ovarian,45.6 µM
same,TGI,SK-OV-3 ovarian,> 100 µM
same,GI50,NCI-H522 lung,13.1 µM
same,TGI,NCI-H522 lung,33.3 µM
same,GI50,SN12C renal,29.7 µM
same,TGI,SN12C renal,> 100 µM
same,GI50,OVCAR-4 ovarian,36.4 µM
same,TGI,OVCAR-4 ovarian,> 100 µM
same,GI50,OVCAR-8 ovarian,15.4 µM
same,TGI,OVCAR-8 ovarian,> 100 µM
same,TGI,CCRF-CEM leukemia,> 100 µM
same,GI50,SF-268 CNS,30.4 µM
same,TGI,SF-268 CNS,> 100 µM
same,GI50,SW-620 colon,26.7 µM
same,TGI,SW-620 colon,> 100 µM
same,GI50,T-47D breast,33.2 µM
same,TGI,T-47D breast,> 88.7 µM
same,GI50,EKVX NSCLC,> 52.7 µM
same,TGI,EKVX NSCLC,> 100 µM
same,GI50,U251 CNS,20.8 µM
same,TGI,U251 CNS,> 100 µM
same,GI50,COLO 205 colon,17.6 µM
same,TGI,COLO 205 colon,> 100 µM
same,GI50,TK-10 renal,> 100 µM
same,TGI,TK-10 renal,> 100 µM
same,GI50,NCI/ADR-RES ovarian,18.4 µM
same,TGI,NCI/ADR-RES ovarian,> 100 µM
same,GI50,HT29 colon,35.8 µM
same,TGI,HT29 colon,> 100 µM
same,GI50,SK-MEL-5 melanoma,15.2 µM
same,TGI,SK-MEL-5 melanoma,28.8 µM
same,GI50,UO-31 renal,14.5 µM
same,TGI,UO-31 renal,> 100 µM
same,GI50,MDA-MB-435,39.5 µM
same,TGI,MDA-MB-435,> 100 µM
same,GI50,MCF7 breast,3.29 µM
same,TGI,MCF7 breast,30 µM
same,GI50,HOP-92 NSCLC,5.52 µM
same,TGI,HOP-92 NSCLC,> 100 µM
same,GI50,NCI-H23 lung,12 µM
same,TGI,NCI-H23 lung,> 84.5 µM
same,GI50,SK-MEL-2 melanoma,42.3 µM
same,TGI,SK-MEL-2 melanoma,> 100 µM
same,GI50,SR leukemia,8.01 µM
same,TGI,SR leukemia,98.1 µM
same,GI50,MDA-MB-231 breast,25.9 µM
same,TGI,MDA-MB-231 breast,> 96.4 µM
same,GI50,M14 melanoma,11.8 µM
same,TGI,M14 melanoma,> 83.6 µM
same,GI50,HCT-15 colon,50.8 µM
same,TGI,HCT-15 colon,> 100 µM
same,GI50,KM12 colon,33.7 µM
same,TGI,KM12 colon,> 100 µM
same,GI50,A498 renal,> 82 µM
same,TGI,A498 renal,> 100 µM
same,GI50,RXF 393 renal,> 77.9 µM
same,TGI,RXF 393 renal,> 100 µM
same,GI50,HOP-62 NSCLC,20.5 µM
same,TGI,HOP-62 NSCLC,> 100 µM
same,GI50,PC-3 prostate,35.9 µM
same,TGI,PC-3 prostate,> 100 µM
same,GI50,OVCAR-5 ovarian,51.6 µM
same,TGI,OVCAR-5 ovarian,> 100 µM
same,GI50,UACC-257 melanoma,46.3 µM
same,TGI,UACC-257 melanoma,> 100 µM
same,GI50,786-0 renal,10.1 µM
same,TGI,786-0 renal,> 100 µM
same,GI50,NCI-H226 lung,30.7 µM
same,TGI,NCI-H226 lung,> 100 µM
same,GI50,K-562 leukemia,14.6 µM
same,TGI,K-562 leukemia,> 52.4 µM
same,GI50,UACC-62 melanoma,17.2 µM
same,TGI,UACC-62 melanoma,> 100 µM
same,GI50,IGROV1 ovarian,33.9 µM
same,TGI,IGROV1 ovarian,> 100 µM
same,GI50,OVCAR-3 ovarian,> 100 µM
same,TGI,OVCAR-3 ovarian,> 100 µM
same,GI50,HCC-2998 colon,14.5 µM
same,TGI,HCC-2998 colon,> 100 µM
same,GI50,HS 578T breast,> 100 µM
same,TGI,HS 578T breast,> 100 µM
same,GI50,BT-549 breast,34.9 µM
same,TGI,BT-549 breast,> 100 µM
same,GI50,SF-539 CNS,> 100 µM
same,TGI,SF-539 CNS,> 100 µM
same,GI50,RPMI-8226 leukemia,49.8 µM
same,TGI,RPMI-8226 leukemia,> 100 µM
same,GI50,HCT-116 colon,4.77 µM
same,TGI,HCT-116 colon,> 80.6 µM
same,TGI,MOLT-4 leukemia,26.2 µM
same,GI50,LOX IMVI melanoma,10.2 µM
same,TGI,LOX IMVI melanoma,37.9 µM
same,GI50,ACHN renal,8.76 µM
same,TGI,ACHN renal,> 100 µM
same,GI50,SNB-75 CNS,> 58.6 µM
same,TGI,SNB-75 CNS,> 100 µM
same,GI50,SF-295 CNS,21.5 µM
same,TGI,SF-295 CNS,> 100 µM
same,GI50,DU-145 prostate,9.03 µM
same,TGI,DU-145 prostate,> 100 µM
same,GI50,SK-MEL-28 melanoma,33.1 µM
same,TGI,SK-MEL-28 melanoma,> 100 µM
same,GI50,MALME-3M melanoma,17.3 µM
same,TGI,MALME-3M melanoma,60.4 µM
same,GI50,NCI-H460 lung,2.38 µM
same,TGI,NCI-H460 lung,24.5 µM
